Marks after values point to notes of the source that are not given here.

The test system of one series is hepatocytes. As to the kind of experiment: Hepatic glucose production in vitro in isolated hepatocytes (Table IV). Particulars: for inhibition of hepatic glucose production in vitro (in words): isolated rat hepatocytes. The format is cell-based, Wistar rats. The procedure: The following two methods were used:
(§1) 1) The hepatocytes are cultured for 16 to 18 hours in DMEM medium in the presence of AMP cyclase/dexamethasone at respective concentrations of 5×10^−5 M and 5×10^−7 M, with preincubation of the products at the test doses. After washing in pH 7.4 PBS buffer, the cells are incubated for three hours at 37° C. in a Krebs/AMPc/DEX buffer at the abovementioned concentrations. 0.1 μM insulin is used as reference substance. Two identical experiments are performed (Table III-1).
(§2) After washing in pH 7.4 PBS buffer, the cells are incubated for two hours at 37° C. in a Krebs buffer free of glucose and of insulin, containing lactate/pyruvate (10/1 mM) in the presence or absence of the test compounds. 10 μM MICA (5-methoxyindole-2-carboxylic acid) is used as reference substance. Two identical experiments are performed (Table III-2).
The protein assay is performed on the rest of the incubation medium via the Lowry method (BIO-RAD Dc protein assay, BIO-RAD 5000116).
(§3) The results are expressed as nmoles of glucose produced per […] of proteins. The statistical test used is the t test.

A further series concerns N0STZ rats. Briefly: Antidiabetic activity in N0STZ rats (glycaemia after oral treatment). The series is classed as in vivo, rat. Conditions: for percentage change in the glycaemia relative to D0, D4 (20 mg) / percentage change in the glycaemia relative to D0, D4 (200 mg): four days of treatment; for percentage change in the glycaemia relative to D0, D1 (20 mg) / percentage change in the glycaemia relative to D0, D1 (200 mg): one day of treatment. The procedure: Study of the Antidiabetic Activity in N0STZ Rats
The antidiabetic activity of the compounds of the formulae (I) and (II) orally was determined on an experimental model of non-insulin-dependent diabetes, induced in rats with steptozotocin.
The model of non-insulin-dependent diabetes is obtained in the rats by means of a neonatal injection (on the day of birth) of steptozotocin.
The diabetic rats used are eight weeks old. The animals are housed, from the day of birth to the day of the experiment, in an animal house at a regulated temperature of 21 to 22° C. and subjected to a fixed cycle of light (from 7 a.m. to 7 p.m.) and darkness (from 7 p.m. to 7 a.m.). Their food consisted of a maintenance diet, and water and food were given “ad libitum”, with the exception of fasting two hours before the tests, during which period the food is removed (post-absorptive state).
The rats are treated orally for one (D1) or four (D4) days with the test product. Two hours after the final administration of the product and 30 minutes after anaesthetising the animals with pentobarbital sodium (Nembutal®), a 300 μL blood sample is taken from the end of the tail.
The results presented below are expressed as a percentage change in the glycaemia on D1 and D4 (number of days of treatment) relative to D0 (before the treatment).

For series [1], the system named is primary hepatocytes. Briefly: Hepatic glucose production, basal Lact/Pyr 2 hours, in primary hepatocytes (Table III-2). The format is cell-based, Wistar rats. The method, then: (§4) The hepatocytes are isolated from the liver of Wistar rats fasted for 24 hours, according to the method described in Methods Cell Biol., 13 (1975), 29-83.
2) The hepatocytes are cultured for 16 to 18 hours in RPMI 1640 medium free of glucose but supplemented with 1% glutamine, 100 U/mL penicillin, […] streptomycin and 7×10^−5 M hydrocortisone hemisuccinate.
as §2
(§5) Quantification of the glucose is performed via a calorimetric method using glucose oxidase (IL test™ Glucose, Monarch 181633-80). The protein assay is performed on the rest of the incubation medium via the Lowry method (BIO-RAD Dc protein assay, BIO-RAD 5000116).
as §3

Series [2] relates to primary hepatocytes. As to the kind of experiment: Hepatic glucose production stimulated by AMPc/DEX in primary hepatocytes (Table III-1). The series is classed as cell-based, Wistar rats. The method, then: as §4, §1, §5, §3
For series [3], the system named is perfused isolated pancreases from N0 STZ diabetic rats. As to the kind of experiment: Secretion of insulin and glucagon in perfused isolated pancreases from N0 STZ diabetic rats. The format is cell-based. Particulars: perfused diabetic rat pancreas; absence of glucose, then 16.5 mM glucose; glucose-dependent. The source says:
The results are expressed as the mean ±SEM (standard error of mean) of several experiments. The statistical test used is the Scheffé test.

Setting [4] is: Rattus norvegicus, Hepatocyte, 10 μM.
Setting [5] is: Rattus norvegicus, Hepatocyte, 100 μM.

Usually melting point stands for the temperature of the solid-liquid transition. Compound `O=C(CC(SCc1ccccc1)C(=O)O)c1ccccc1` (stereo not shown) [Ih-8, 2-benzylthio-4-phenyl-4-oxobutanoic acid] gave a melting point of 143 to 146 °C.

The compound `O=C(CC(Sc1ccc(F)cc1)C(=O)O)c1ccc(Cl)cc1` (stereo not shown) [Ih-26, 2-(4′-fluorophenylthio)-4-(4′-chlorophenyl)-4-oxobutanoic acid] returned a melting point of 140 to 141 °C.

As for `COc1ccc(C(=O)CC(Sc2ccc(Cl)cc2)C(=O)O)cc1` (stereo not shown) [Ih-19, 2-(4′-chlorophenylthio)-4-(4′-methoxyphenyl)-4-oxobutanoic acid], the melting point lay in the range of 120 to 121 °C.

The compound `COc1ccc(SC(CC(=O)c2ccc(Cl)cc2)C(=O)O)cc1` (stereo not shown) [Ih-29, 2-(4′-methoxyphenylthio)-4-(4′-chlorophenyl)-4-oxobutanoic acid] gave a melting point of 117 to 119 °C.

On to `O=C(C[C@@H](Cc1ccccc1)C(=O)O)c1ccc(Cl)c(Cl)c1` (racemic) [Compound j, (R,S)-2-benzyl-4-(3′,4′-dichlorophenyl)-4-oxobutanoic acid], for which the “inhibition of hepatic glucose production” value in the series on hepatocytes (1 μM) is reported as 30** %; in the series with hepatocytes (10 μM), 51** %; in the series on hepatocytes (100 μM), 65** %. Besides, the “inhibition of hepatic glucose production in vitro (in words)” value (shortened to “inhibition … (in words)”) in the series with hepatocytes is “powerful inhibitors of hepatic glucose production in vitro”.

Consider `O=C(CC(Sc1ccc(F)cc1)C(=O)O)c1ccccc1` (stereo not shown) [Ih-3, 2-(4′-fluorophenylthio)-4-phenyl-4-oxobutanoic acid], for which, in the series with N0STZ rats, the “percentage change in the glycaemia relative to D0, D4 (20 mg)” value was −19%; the “percentage change in the glycaemia relative to D0, D4 (200 mg)” value is given as −12%; the “percentage change in the glycaemia relative to D0, D1 (20 mg)” value was −3%; the “percentage change in the glycaemia relative to D0, D1 (200 mg)” value was 7%.

As to `O=C(CC(C(=O)O)c1ccc(Cl)cc1)c1ccc(Cl)cc1` (stereo not shown) [Ih-27, 2-(4′-chlorophenyl)-4-(4′-chlorophenyl)-4-oxobutanoic acid], the melting point was in the range of 154 to 156 °C.

The compound `O=C(CC(SC1CCCCC1)C(=O)O)c1ccccc1` (stereo not shown) [Ih-7, 2-cyclohexylthio-4-phenyl-4-oxobutanoic acid] yielded a melting point of 117 °C.

In the case of `O=C(CC(Sc1ccccc1)C(=O)O)c1ccccc1` (stereo not shown) [Ih-2, 2-phenylthio-4-phenyl-4-oxobutanoic acid], the melting point was 132 to 135 °C.

As to `COc1ccc(C(=O)CC(Sc2ccccc2)C(=O)O)cc1` (stereo not shown) [Ih-17, 2-phenylthio-4-(4′-methoxyphenyl)-4-oxobutanoic acid], the melting point lay within 121 to 125 °C.

In turn, `COc1ccc(SC(CC(=O)c2ccccc2)C(=O)O)cc1` (stereo not shown) [Ih-6, 2-(4′-methoxyphenylthio)-4-phenyl-4-oxobutanoic acid] had a melting point of 116 to 118 °C.

`Cc1ccc(SC(CC(=O)c2ccccc2)C(=O)O)cc1` (stereo not shown) [Ih-5, 2-(4′-methylphenylthio)-4-phenyl-4-oxobutanoic acid] showed a melting point of 132 to 134 °C.

As for `COc1ccc(C(=O)CC(SC2CCCCC2)C(=O)O)cc1` (stereo not shown) [Ih-23, 2-cyclohexylthio-4-(4′-methoxyphenyl)-4-oxobutanoic acid], the melting point is 120 to 122 °C.

The compound `COc1ccc(C(=O)CC(Sc2ccc(F)cc2)C(=O)O)cc1` (stereo not shown) [Ih-18, 2-(4′-fluorophenylthio)-4-(4′-methoxyphenyl)-4-oxobutanoic acid] showed a melting point of 108 to 110 °C.

As to `Cc1ccc(SC(CC(=O)c2ccc(Cl)cc2)C(=O)O)cc1` (stereo not shown) [Ih-28, 2-(4′-methylphenylthio)-4-(4′-chlorophenyl)-4-oxobutanoic acid], the melting point lay in the range of 151 to 153 °C.

`COc1ccc(C(=O)CC(Sc2ccc(C)cc2)C(=O)O)cc1` (stereo not shown) [Ih-20, 2-(4′-methylphenylthio)-4-(4′-methoxyphenyl)-4-oxobutanoic acid]: the melting point fell in the range of 137 to 141 °C.

In the case of `O=C(CC(Sc1ccc2ccccc2c1)C(=O)O)c1ccccc1` (stereo not shown) [Ih-1, 2-(2′-naphthylthio)-4-phenyl-4-oxobutanoic acid], the “inhibition … (in words)” value in the series with hepatocytes is “powerful inhibitors of hepatic glucose production in vitro”. In addition, in the series with N0STZ rats, the “percentage change in the glycaemia relative to D0, D4 (20 mg)” value is given as −12%. Further, the “percentage change in the glycaemia relative to D0, D4 (200 mg)” value with N0STZ rats was −21%. In the series with N0STZ rats, the “percentage change in the glycaemia relative to D0, D1 (20 mg)” value came to 7%. Besides, the “percentage change in the glycaemia relative to D0, D1 (200 mg)” value in the series with N0STZ rats stood at 10%. For the same compound, the “HGP % of control” value with primary hepatocytes [1] (1 μM) is reported as 110 % of control; in the series on primary hepatocytes [1] (10 μM) it was 127 % of control; with primary hepatocytes [1] (100 μM) it was 75 % of control; in the series on primary hepatocytes [2] (1 μM), 103 % of control; in the series on primary hepatocytes [2] (10 μM), 83 % of control; in the series with primary hepatocytes [2] (100 μM), 15 % of control.

As usually defined, the inhibition is the percentage by which the read-out fell short of the control. A high value points to strong suppression. For `Nc1ccccc1C(=O)CC(N)C(=O)O` (stereo not shown) [Kynurenine], in series [3], the “glucagon secretion (in words)” value is reported as “stimulated” and the “insulin secretion (in words)” value was “stimulated”. In the series on hepatocytes (Rattus norvegicus, Hepatocyte, 1 μM), this compound displayed an inhibition at 1 µM of 2%. In the series on hepatocytes (setting [4]), the inhibition at 10 µM stood at 4%. In the series with hepatocytes (setting [5]), 100 µM produced 25% inhibition. The inhibition at 1000 µM in the series on hepatocytes (Rattus norvegicus, Hepatocyte, 1000 μM) turned out to be 78%. The “inhibition … (in words)” value in the series on hepatocytes was “powerful inhibitors of hepatic glucose production in vitro”.

Take `O=C(O)c1cc(=O)c2ccccc2[nH]1` [Kynurenic acid]: in series [3], the “glucagon secretion (in words)” value is given as “stimulates” and the “insulin secretion (in words)” value is “stimulates the secretion of insulin”.

Take `N[C@@H](Cc1c[nH]c2ccccc12)C(=O)O` [Tryptophan]: in series [3], the “glucagon secretion (in words)” value was “stimulates glucagon secretion in a glucose-dependent manner” and the “insulin secretion (in words)” value is given as “stimulates insulin secretion in a glucose-dependent manner”. In the series with hepatocytes (setting [4]), this compound showed an inhibition at 10 µM of 12%. In the series on hepatocytes (setting [5]), the inhibition at 100 µM is 81%. In addition, the “inhibition … (in words)” value with hepatocytes is “powerful inhibitors of hepatic glucose production in vitro”.

Compound `COc1ccc(SC(CC(=O)c2ccc(OC)cc2)C(=O)O)cc1` (stereo not shown) [Ih-21, 2-(4′-methoxyphenylthio)-4-(4′-methoxyphenyl)-4-oxobutanoic acid] showed a melting point of 137 to 140 °C.

Take `COc1ccc(C(=O)CC(SCc2ccccc2)C(=O)O)cc1` (stereo not shown) [Ih-24, 2-benzylthio-4-(4′-methoxyphenyl)-4-oxobutanoic acid]: the melting point was 105 to 109 °C.

The compound `O=C(CC(Sc1ccc(Cl)cc1)C(=O)O)c1ccccc1` (stereo not shown) [Ih-4, 2-(4′-chlorophenylthio)-4-phenyl-4-oxobutanoic acid] gave a melting point of 140 to 142 °C.

Turning to `O=C(CC(Sc1ccccc1)C(=O)O)c1ccc(Cl)cc1` (stereo not shown) [Ih-25, 2-phenylthio-4-(4′-chlorophenyl)-4-oxobutanoic acid], the melting point is 166 to 169 °C.

In the series on hepatocytes (setting [4]), `COc1ccc2[nH]c(C(=O)O)cc2c1` [MICA, 5-methoxyindole-2-carboxylic acid] came in with an inhibition at 10 µM of 67%.

(Values after patent publication US20060052456A1, “Kynurenine 3-hydroxylase inhibitors for the treatment of diabetes by increasing the number of islets of langerhans cells” (MERCK PATENT GMBH, priority 2003, published 2006).)
